Measurements from article PMC8032764 (Scientific Reports, 2021).
Where two headings read alike, the source gives them in different places.

Legend:
male Lister Hooded rats = assay: Diazepam-induced spatial learning impairment in the Morris water maze; format: in vivo, rat; conditions: diazepam 6 mg/kg i.p.
Protocol: The current study used a modified version of the standard acquisition protocol, in which pre-trained rats had to learn to locate a new platform position during six trials on the test day, as described previously. Subjects were semi-randomly divided into treatment groups based on their performance on the last training day. A computer tracking system (HVS Image Ltd, UK) was used to analyse each rat’s swim path on-line.
Latency, pathlength and swim speed (Supplementary Fig. S2) were analysed with a one-factor ANOVA. For the probe trial, to determine whether each treatment group had learned the spatial position of the platform, within-subjects ANOVA was used to compare percent time spent in the platform quadrant with the left, right and opposite quadrants. All significant cases were followed by a post hoc Newman–Keuls test. In addition, a comparison between vehicle treated and diazepam-treated rats on the percent time spent in the platform quadrant was analysed using an unpaired t-test.

Wistar rats = assay: Pentylenetetrazole (PTZ) test; format: in vivo, rat; conditions: positive control, 10 mg/kg i.p. 30 min prior to PTZ, p < 0.05
Protocol: PTZ was prepared in 0.9% saline and was administered s.c. in a volume of 1 mL/kg. The positive control FG7142, a non-selective GABAA receptor NAM, was prepared in 0.3% Tween 80 v/v saline and was administered i.p. in a volume of 1 mL/kg. […] During this period the number of rats showing tonic convulsions was noted.
FG7142 was administered at 10 mg/kg 30 min prior to PTZ. The percent of rats in each dose group showing tonic convulsions was compared to the control group by the Pearson Chi-Square test.

human GABAA α5β3γ2 = human GABAA α5β3γ2 (Homo sapiens, UniProt P18507+P31644); assay: Two-electrode voltage clamp in Xenopus oocytes, current induced by EC10 of GABA; format: cell-based; parameters: expressed in transfected cells; host or cells: Xenopus laevis oocytes, cRNA injection
Protocol: Freshly prepared oocytes of maturation stage VI were bought from Ecocyte Bioscience (Castrop-Rauxel, Germany) and, after overnight delivery, plated into 96-well plates (Greiner no. 651101) for microinjection on a ROBOOCYTE R16 system (Multichannel Systems MCS GmbH, Reutlingen, Germany). Each oocyte was injected with roughly 50 nL of RNA solution. The solution for expressing receptors composed of the human α1, β2 and γ2 subunits contained 3 pg/nL of α1 and β2 RNA and 15 pg/nL of γ2 RNA. The solution for expressing human α2β3γ2 receptors contained 2.5 pg/nL of α2 and β3 RNA, 5 pg/nL of γ2 RNA and 10 pg/nL of GABARAP RNA. The solution for expressing human α3β3γ2 receptors contained 1.3 pg/nL of α3 and β3 RNA and 6.5 pg/nL of γ2 RNA. The solution for expressing human α5β3γ2 receptors contained 1.3 pg/nL of α5 and β3 RNA and 13 pg/nL of γ2 RNA. […] After the microinjection the oocytes were kept at 20 °C temperature until the electrophysiological experiment. Experiments were done 3 to 5 days later on the ROBOOCYTE instrument which employs the two-microelectrode voltage-clamp technique for membrane voltage control and current measurement. […] During current recording and compound testing the cell membrane was constantly clamped to − 80 mV. Current signals were recorded and stored on a PC-type computer using the ROBOOCYTE software.
(§1) During the microinjection and up to the electrophysiological experiment the oocytes were kept in a solution containing 88 mM NaCl, 1 mM KCl, 2.5 mM NaHCO3, 10 mM HEPES (AppliChem GmbH, Darmstadt, Germany), 0.82 MgSO4, 0.33 mM Ca(NO3)2, 0.33 mM CaCl2, 100 U/mL penicillin (GIBCO, ThermoFisher Scientific) and 100 µg/mL streptomycine (GIBCO, ThermoFisher Scientific). The pH was adjusted to 7.5. During the experiment the voltage-clamped oocyte was constantly superfused by a solution containing 90 mM NaCl, 1 mM KCl, 5 mM HEPES (AppliChem), 1 mM MgCl2 and 1 mM CaCl2 (pH 7.4). GABA and test compounds were added to this solution. GABA concentrations were chosen according to previously determined concentration–response relations for the different human GABAA receptor subunit combinations. Concentrations evoking approximately 10% of a maximal response were selected, i.e., 8 µM for α1β2γ2, 6 µM for α2β3γ2, 10 µM for α3β3γ2 and 5 µM for α5β3γ2. Solutions containing GABA or test compounds were freshly prepared at least every second day. […] Compounds were further diluted in DMSO and finally in extracellular saline to reach a DMSO concentration of 0.1%. The same amount of DMSO was added to the control solutions without test compounds.
During the experiment the solutions were fed into the well containing the voltage-clamped oocyte via Teflon tubings connected by electromagnetic valves which allowed rapid switching between different solutions (controlled by the ROBOCYTE software). Approximately 1–2 min after impaling an oocyte and switching to voltage-clamp mode GABA was applied for 90 s to record a control response. Thereafter the oocyte was washed with saline for 160 s followed by another 90 s GABA application. Then 30 s after the onset of the second GABA application the system switched to a solution containing GABA plus the test compound. Each oocyte was used for testing one concentration of a single test compound (for α5β3γ2: 1 nM: n = 8, 10 nM: n = 8, 100 nM: n = 7, 1000 nM: n = 7).
In this case each GABA application lasted 110 s and the rest period between the two GABA applications was 190 s long.
On each 96-well plate 3–6 oocytes were used for testing a known NAM at the BZD binding site, β-CCM (FG7106), as a positive control. […] Maximally effective concentrations of β-CCM were used for each subunit combination, i.e., 100 nM β-CCM for α1β2γ2, 300 nM for α2β3γ2 or α3β3γ2 and 1 µM for α5β3γ2.

GABAA α5β3γ2 = conditions: cited from earlier work
GABAA α2β3γ2 = conditions: Table S4a, cited from earlier work
GABAA α3β3γ2 = conditions: Table S4a, cited from earlier work
GABAA α1β3γ2 = conditions: Table S4a, cited from earlier work
male F-344 rats = assay: Social approach avoidance test; conditions: positive control, 3 mg/kg p.o., 30 min prior to testing
Protocol: Experiments on social approach avoidance were performed as described previously by[41] and[14]. A tracking system (Ethovision, Noldus, The Netherlands) was used to analyse each rat’s pathway.

human GABAA α2β3γ2 = tested on: T1, human GABAA α2β3γ2; assay: Two-electrode voltage clamp in Xenopus oocytes, current induced by EC10 of GABA; format: cell-based; conditions: 300 nM β-CCM; not shown
T1 construct: expressed in transfected cells; host or cells: Xenopus laevis oocytes, cRNA injection
Protocol: Freshly prepared oocytes of maturation stage VI were bought from Ecocyte Bioscience (Castrop-Rauxel, Germany) and, after overnight delivery, plated into 96-well plates (Greiner no. 651101) for microinjection on a ROBOOCYTE R16 system (Multichannel Systems MCS GmbH, Reutlingen, Germany). Each oocyte was injected with roughly 50 nL of RNA solution. The solution for expressing receptors composed of the human α1, β2 and γ2 subunits contained 3 pg/nL of α1 and β2 RNA and 15 pg/nL of γ2 RNA. The solution for expressing human α2β3γ2 receptors contained 2.5 pg/nL of α2 and β3 RNA, 5 pg/nL of γ2 RNA and 10 pg/nL of GABARAP RNA. The solution for expressing human α3β3γ2 receptors contained 1.3 pg/nL of α3 and β3 RNA and 6.5 pg/nL of γ2 RNA. The solution for expressing human α5β3γ2 receptors contained 1.3 pg/nL of α5 and β3 RNA and 13 pg/nL of γ2 RNA. GABARAP was added to the α2β3γ2 subunit mixture since the expression of γ2 would be low otherwise, as indicated by a weak effect of β-CCM[60]. After the microinjection the oocytes were kept at 20 °C temperature until the electrophysiological experiment. Experiments were done 3 to 5 days later on the ROBOOCYTE instrument which employs the two-microelectrode voltage-clamp technique for membrane voltage control and current measurement. […] During current recording and compound testing the cell membrane was constantly clamped to − 80 mV. Current signals were recorded and stored on a PC-type computer using the ROBOOCYTE software.
as §1, with “compounds. […]” for “compounds.”

Chain of human GABAA α5β3γ2 (P31644 32-462): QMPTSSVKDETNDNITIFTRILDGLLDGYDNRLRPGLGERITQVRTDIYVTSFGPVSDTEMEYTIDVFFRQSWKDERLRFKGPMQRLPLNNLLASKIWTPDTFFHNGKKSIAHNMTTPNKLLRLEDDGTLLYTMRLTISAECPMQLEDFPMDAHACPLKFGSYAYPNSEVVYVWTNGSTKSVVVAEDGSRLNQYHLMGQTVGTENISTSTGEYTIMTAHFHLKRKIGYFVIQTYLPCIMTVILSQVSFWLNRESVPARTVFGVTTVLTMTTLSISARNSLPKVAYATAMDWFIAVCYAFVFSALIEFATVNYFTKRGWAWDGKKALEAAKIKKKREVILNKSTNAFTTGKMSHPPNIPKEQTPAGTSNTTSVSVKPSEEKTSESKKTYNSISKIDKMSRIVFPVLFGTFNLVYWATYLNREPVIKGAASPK
Chain of human GABAA α5β3γ2 (P28472 26-473 partner): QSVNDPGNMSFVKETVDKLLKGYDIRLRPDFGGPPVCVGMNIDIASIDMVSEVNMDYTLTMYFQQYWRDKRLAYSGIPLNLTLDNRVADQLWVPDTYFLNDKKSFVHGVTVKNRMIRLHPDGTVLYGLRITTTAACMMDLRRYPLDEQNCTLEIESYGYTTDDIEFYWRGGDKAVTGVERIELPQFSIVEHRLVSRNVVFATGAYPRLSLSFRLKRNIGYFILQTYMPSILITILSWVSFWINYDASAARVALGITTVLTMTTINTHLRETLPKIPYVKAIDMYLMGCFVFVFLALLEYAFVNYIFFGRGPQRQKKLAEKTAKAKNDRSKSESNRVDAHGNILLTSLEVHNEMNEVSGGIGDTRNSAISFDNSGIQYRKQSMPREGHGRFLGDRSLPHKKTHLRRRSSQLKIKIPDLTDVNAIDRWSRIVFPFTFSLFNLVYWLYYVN
Chain of human GABAA α5β3γ2 (P18507 40-475): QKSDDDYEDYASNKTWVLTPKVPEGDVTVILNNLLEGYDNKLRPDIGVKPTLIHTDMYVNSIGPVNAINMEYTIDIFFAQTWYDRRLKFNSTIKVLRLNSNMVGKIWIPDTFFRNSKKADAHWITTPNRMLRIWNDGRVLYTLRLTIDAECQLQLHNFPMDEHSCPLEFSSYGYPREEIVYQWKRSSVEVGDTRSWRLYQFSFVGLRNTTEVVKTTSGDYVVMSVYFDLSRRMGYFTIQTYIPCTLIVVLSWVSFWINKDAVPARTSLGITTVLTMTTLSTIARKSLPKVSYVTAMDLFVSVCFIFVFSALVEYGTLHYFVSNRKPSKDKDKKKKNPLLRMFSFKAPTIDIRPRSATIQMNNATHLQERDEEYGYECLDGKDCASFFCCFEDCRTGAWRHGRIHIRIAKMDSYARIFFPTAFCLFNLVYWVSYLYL

## CN1C(=O)CN=C(c2ccccc2)c2cc(Cl)ccc21 [Diazepam, reference compound]
Male Lister Hooded rats
  latency and pathlength to find the platform across six trials: significantly increased the latency and pathlength
  swim speed: small but significant increase in swim speed
Male Lister Hooded rats; 30 min before test
  probe trial, learning of the new platform position: significantly disrupted learning of the new platform position

## CNC(=O)c1cc2c(cn1)[nH]c1ccccc12 [FG7142, N-Methyl-9H-pyrido[5,4-b]indole-3-carboxamide, reference compound]
Wistar rats
  number of rats showing tonic convulsions: increased the number of rats showing tonic convulsions

## CCOC(=O)c1ncn2c1CN(C)C(=O)c1cc(F)ccc1-2 [Flumazenil, reference compound]
Human GABAA α5β3γ2; 30 and 1000 nM, concentration-dependent
  enhancement of the GABA-induced current: up to 28%

## CCOC(=O)c1ncn2c1[C@@H]1CCCN1C(=O)c1cc(OC)ccc1-2 [L-655,708]
GABAA α5β3γ2; Table S4a, ref Atack et al., 2006, read-out: Ki α5β3γ2
  Ki: 0.001 µM
GABAA α5β3γ2; discussion, no reference given, read-out: Ki at the GABAA-α5 receptor subtype
  Ki: ~0.001 µM
GABAA α2β3γ2; ref Atack et al., 2006
  Ki: 0.048 µM
GABAA α3β3γ2; ref Atack et al., 2006
  Ki: 0.031 µM
GABAA α1β3γ2; ref Atack et al., 2006
  Ki: 0.07 µM

## COCc1ncn2c1CN(C)C(=O)c1cc(Cl)ccc1-2 [PWZ-029]
GABAA α5β3γ2; Table S4a, ref Savić et al., 2008, read-out: Ki α5β3γ2
  Ki: 0.03 µM
GABAA α2β3γ2; ref Savić et al., 2008
  Ki: > 0.3 µM
GABAA α3β3γ2; ref Savić et al., 2008
  Ki: > 0.3 µM
GABAA α1β3γ2; ref Savić et al., 2008
  Ki: 0.92 µM

## CN1Cc2c(C(=O)OC(C)(C)C)ncn2-c2ccsc2C1=O [Ro 19-4603, reference compound]
Male F-344 rats; p < 0.001
  time in the social compartment: significantly decreased the time in the social compartment
Male F-344 rats; p < 0.05
  time in the hidden area: increased the time in the hidden area

## COC(=O)c1cc2c(cn1)[nH]c1ccccc12 [β-CCM, methyl beta-carboline-3-carboxylate, reference compound]
Human GABAA α2β3γ2
  inhibition of GABA response: 42%
Human GABAA α5β3γ2; maximally effective concentration, 1 µM β-CCM, data not shown
  reduction of the GABA-evoked current: 52%
